The values below come from patent US20200383985A1, “Inhibitors of Protease Activated Receptor-2” (Endosome Therapeutics, Inc., priority 2017, published 2020).

Usually inhibition stands for the share of the control response that was lost under treatment.

Common to all, as to assay type: cell-based
One assay addresses T1, human (h) PAR2 (Homo sapiens, UniProt P55085).
T1 construct: expressed in transfected cells; host or cells: KNRK cells (KNRK-hPAR2)
T1 sequence (P55085 26-397): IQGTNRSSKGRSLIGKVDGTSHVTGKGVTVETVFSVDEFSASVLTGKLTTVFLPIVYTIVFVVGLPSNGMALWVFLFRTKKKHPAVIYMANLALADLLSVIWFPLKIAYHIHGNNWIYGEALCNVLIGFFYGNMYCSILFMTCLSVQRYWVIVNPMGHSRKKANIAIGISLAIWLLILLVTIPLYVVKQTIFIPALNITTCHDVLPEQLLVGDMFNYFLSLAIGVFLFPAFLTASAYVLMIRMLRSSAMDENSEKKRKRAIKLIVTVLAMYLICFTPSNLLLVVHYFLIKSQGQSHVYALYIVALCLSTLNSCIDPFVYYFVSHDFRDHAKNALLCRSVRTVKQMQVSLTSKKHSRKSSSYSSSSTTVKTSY
The experiment in a line: IP1 accumulation assay in KNRK-hPAR2 cells. The following applies: for inhibition at 30 µM: 100 nM 2F, 30 μM of antagonist, read-out: KNRK-PAR2 100 nM 2F: ND (inhibition of 2F at 30 μM of antagonist); for IC50: 2F (100 nM)-induced IP1, KNRK-hPAR2 cells, read-out: KNRK-PAR2 100 nM 2F pIC50 ± SEM (converted). How it is done: (§1) KNRK-hPAR2, KNRK or HT-29 cells were seeded at a density of 50×10^3 cells/well in a clear poly-d-lysine coated 96 well tissue culture plate. Following 24 h incubation at 37° C. and 5% CO2, media was removed and replaced with 80 μl IP1 stimulation buffer (10 mM HEPES, 1 mM CaCl2, 0.5 mM MgCl2, 4.2 mM KCl, 146 mM NaCl, 5.5 mM glucose, 50 mM LiCl). Following stimulation buffer addition, the wells received 10 μl of 10× antagonists or DMSO vehicle. All plates were further incubated at 37° C., 5% CO2 for 30 min. 10 μl of 2F or ATP was added to the plates and further incubated for 40 min. Following incubation, stimulation buffer was quickly removed by aspiration and replaced with 25 μl lysis buffer (IP-One HTRF® assay kit, Cisbio). Following incubation of the lysates at 37° C., 5% CO2 for 10′, 10 μl lysate was transferred to a 384-well OptiPlate (PerkinElmer) and detected using the IP-One HTRF® assay kit (Cisbio).
(§2) Compounds of the invention (added at 10×concentrations in a 10 μL volume) were incubated for 30 min prior to the addition of 10 μM ATP or 100 nM or 300 nM PAR2 agonist (2F; EC80, added at 10×concentrations in a 10 μL volume) and then further incubated for 40 min. After lysis, the inositol phosphate 1 was quantified with IP-One HTRF® assay kit, Cisbio. The data was analysed with Prism, GraphPad to calculate the IC50 values, shown below in Table 1.
(§3) Inhibition of PAR2 signaling with known PAR2 inhibitor I-343 (FIG. 14A) was investigated in HT-29 cells and HEK293 cells, which express endogenous PAR2, and in KNRK cells expressing human (h) PAR2. Accumulation of inositol phosphate-1 (IP1) was measured in response to the PAR2-selective agonist 2-Furoyl-LIGRLO-NH2 (2F), an analogue of the trypsin-exposed tethered ligand, or trypsin.
(§4) KNRK-hPAR2, KNRK, HEK293, or HT-29 cells were seeded at a density of 50×10^3 cells/well onto clear 96-well plates (PerkinElmer). After 24 h of culture, medium was replaced with IP1 stimulation buffer (10 mM HEPES, 1 mM CaCl2, 0.5 mM MgCl2, 4.2 mM KCl, 146 mM NaCl, 5.5 mM glucose, 50 mM LiCl; 37° C., 5% CO2.). Cells were pre-incubated with the antagonist or vehicle for 30 min prior to the addition of agonist. Cells were then further incubated for 40 min. Stimulation buffer was […]

In the next assay the target is T2, PAR2 (Homo sapiens, UniProt P55085).
T2 construct: HT-29 cells and HEK293 cells, which express endogenous PAR2; endogenous in cells; host or cells: HT-29
T2 sequence (P55085 26-397): T1 sequence (P55085 26-397)
As to the kind of experiment: IP1 accumulation assay in HT-29 cells (endogenous PAR2). The conditions noted are these: 2F (300 nM)-induced IP1, HT-29 cells. As to the method:
as §1, §2, §3, §4

A further assay has as its system mouse DRG neurons. The experiment in a line: Patch clamp rheobase of DRG neurons: protease-induced hyperexcitability of nociceptors. A general note: In patch-clamp work, channel activity is measured electrically.
[1] abbreviates: read-out: HT-29 300 nM 2F (IC50).
The mark [2] stands for this setting: read-out: HT-29 300 nM 2F pIC50 ± SEM (converted).

Like-named read-outs stand apart in the source and are kept apart here.

As to `CC(C)(C)c1cc(-c2ccc(F)cc2)nn2cc(C(=O)N3CCN(C(=O)CCS(=O)(=O)O)CC3(C)C)nc12` [Compound 1, 3-(4-(8-(tert-butyl)-6-(4-fluorophenyl)imidazo[1,2-b]pyridazine-2-carbonyl)-3,3-dimethylpiperazin-1-yl)-3-oxopropane-1-sulfonic acid], the inhibition at 30 µM on human (h) PAR2 is < 50%. Further, the IC50 on PAR2 (setting [1]) worked out at 5.9 µM.

For the compound `CC(C)(C)c1cc(-c2ccc(F)cc2)nn2cc(C(=O)N3CCN(C(=O)c4cn(CC(=O)O)nn4)CC3(C)C)nc12` [Compound 2, 2-(4-(4-(8-(tert-butyl)-6-(4-fluorophenyl)imidazo[1,2-b]pyridazine-2-carbonyl)-3,3-dimethylpiperazine-1-carbonyl)-1H-1,2,3-triazol-1-yl)acetic acid], the inhibition at 30 µM at human (h) PAR2 is < 50%. The results for the IC50 at PAR2 (setting [1]) and at PAR2 (setting [2]) were 0.14 µM and 0.138 µM, respectively.

With `CC(C)(C)c1cc(-c2ccc(F)cc2)nn2cc(C(=O)N3CCN(C(=O)[C@H]4CC[C@@H](C(=O)NC[C@H](O)[C@@H](O)[C@H](O)[C@H](O)CO)CC4)CC3(C)C)nc12` [Compound 3, (1S,4R)-4-(4-(8-(tert-butyl)-6-(4-fluorophenyl)imidazo[1,2-b]pyridazine-2-carbonyl)-3,3-dimethylpiperazine-1-carbonyl)-N-((2S,3R,4R,5R)-2,3,4,5,6-pentahydroxyhexyl)cyclohexane-1-carboxamide], the IC50 on human (h) PAR2 is > 10 µM; on PAR2 (setting [1]) it was 0.04 µM; at PAR2 (setting [2]), 0.0407 µM.

Regarding `CC(C)(C)c1cc(-c2ccc(F)cc2)cc2nc(C(=O)N3CCN(C(=O)CCC(=O)NC[C@H](O)[C@@H](O)[C@H](O)[C@H](O)CO)CC3(C)C)oc12` [Compound 4, 4-(4-(7-(tert-butyl)-5-(4-fluorophenyl)benzo[d]oxazole-2-carbonyl)-3,3-dimethylpiperazin-1-yl)-4-oxo-N-((2S,3R,4R,5R)-2,3,4,5,6-pentahydroxyhexyl)butanamide], on human (h) PAR2, the inhibition at 30 µM is < 50%. Also, the IC50 on PAR2 (setting [2]) was > 10 µM.

Regarding `CC(C)(C)c1cc(-c2ccc(F)cc2)nn2cc(C(=O)N3CCN(C(=O)c4cn(CC(=O)NCCOCCOCCO)nn4)CC3(C)C)nc12` [Compound 5, 2-(4-(4-(8-(tert-butyl)-6-(4-fluorophenyl)imidazo[1,2-b]pyridazine-2-carbonyl)-3,3-dimethylpiperazine-1-carbonyl)-1H-1,2,3-triazol-1-yl)-N-(2-(2-(2-hydroxyethoxy)ethoxy)ethyl)acetamide], the inhibition at 30 µM on human (h) PAR2 is < 50%. In addition, the IC50 on PAR2 (setting [2]) is 0.18 µM.

Turning to `CC(C)(C)c1cc(-c2ccc(F)cc2)nn2cc(C(=O)N3CCN(C(=O)c4cn(CC(=O)NCCOCCOCCOCCOCCOCCO)nn4)CC3(C)C)nc12` [Compound 6, 2-(4-(4-(8-(tert-butyl)-6-(4-fluorophenyl)imidazo[1,2-b]pyridazine-2-carbonyl)-3,3-dimethylpiperazine-1-carbonyl)-1H-1,2,3-triazol-1-yl)-N-(17-hydroxy-3,6,9,12,15-pentaoxaheptadecyl)acetamide], the inhibition at 30 µM on human (h) PAR2 is < 50%. In addition, the IC50 at PAR2 (setting [1]) was 0.971 µM.

With `CC(C)(C)c1cc(-c2ccc(F)cc2)nn2cc(C(=O)N3CCN(C(=O)[C@H]4CC[C@@H](NC(=O)[C@H](O)[C@@H](O)[C@@H](O)[C@H](O)C(N)=O)CC4)CC3(C)C)nc12` [Compound 7, (2R,3S,4R,5S)—N1-((1s,4S)-4-(4-(8-(tert-butyl)-6-(4-fluorophenyl)imidazo[1,2-b]pyridazine-2-carbonyl)-3,3-dimethylpiperazine-1-carbonyl)cyclohexyl)-2,3,4,5-tetrahydroxyhexanediamide], the inhibition at 30 µM on human (h) PAR2 is < 50%. The results for the IC50 at PAR2 (setting [1]) and on PAR2 (setting [2]) were 0.405 µM and 0.406 µM, respectively.

On to `COC(=O)C12CCC(C(=O)N3CCN(C(=O)c4cn5nc(-c6ccc(F)cc6)cc(C(C)(C)C)c5n4)C(C)(C)C3)(CC1)CC2` [Compound 8, methyl 4-(4-(8-(tert-butyl)-6-(4-fluorophenyl)imidazo[1,2-b]pyridazine-2-carbonyl)-3,3-dimethylpiperazine-1-carbonyl)bicyclo[2.2.2]octane-1-carboxylate], for which the IC50 on human (h) PAR2 was > 10 µM; at PAR2 (setting [2]) it was 0.0427 µM.

In the case of `CC(C)CCC[C@@H](C)[C@H]1CCC2C3CCC4C[C@@H](OC(=O)C[C@H](NC(=O)CCOCCOCCNC(=O)Cn5cc(C(=O)N6CCN(C(=O)c7cn8nc(-c9ccc(F)cc9)cc(C(C)(C)C)c8n7)C(C)(C)C6)nn5)C(N)=O)CC[C@]4(C)C3CC[C@@]21C` (stereo partly drawn) [Compound 9, (3S,10S,13R,17R)-10,13-dimethyl-17-((R)-6-methylheptan-2-yl)hexadecahydro-1H-cyclopenta[a]phenanthren-3-yl (14S)-1-(4-(4-(8-(tert-butyl)-6-(4-fluorophenyl)imidazo[1,2-b]pyridazine-2-carbonyl)-3,3-dimethylpiperazine-1-carbonyl)-1H-1,2,3-triazol-1-yl)-14-carbamoyl-2,12-dioxo-6,9-dioxa-3,13-diazahexadecan-16-oate], the inhibition at 30 µM on human (h) PAR2 is < 50%. Also, at PAR2 (setting [1]), the IC50 was 0.7 µM.

Regarding `CC(C)CCC[C@@H](C)[C@H]1CCC2C3CCC4C[C@@H](OC(=O)C[C@H](NC(=O)CCOCCOCCOCCOCCNC(=O)Cn5cc(C(=O)N6CCN(C(=O)c7cn8nc(-c9ccc(F)cc9)cc(C(C)(C)C)c8n7)C(C)(C)C6)nn5)C(N)=O)CC[C@]4(C)C3CC[C@@]21C` (stereo partly drawn) [Compound 11, (3S,10S,13R,17R)-10,13-dimethyl-17-((R)-6-methylheptan-2-yl)hexadecahydro-1H-cyclopenta[a]phenanthren-3-yl (20S)-1-(4-(4-(8-(tert-butyl)-6-(4-fluorophenyl)imidazo[1,2-b]pyridazine-2-carbonyl)-3,3-dimethylpiperazine-1-carbonyl)-1H-1,2,3-triazol-1-yl)-20-carbamoyl-2,18-dioxo-6,9,12,15-tetraoxa-3,19-diazadocosan-22-oate], the inhibition at 30 µM on human (h) PAR2 was < 50%. Besides, the IC50 on PAR2 (setting [1]) was 0.97 µM.

Consider `CN(C)CCCn1cc(C2=C(c3c[nH]c4ccccc34)C(=O)NC2=O)c2ccccc21` [GF109203X], for which, in the assay on mouse DRG neurons, the initial trypsin-induced hyperexcitability result was “prevented” and the persistent trypsin-induced hyperexcitability entry is on record as “not”.

For the compound `CC(C)c1ccc(Cn2ccc3c4c(N)nc(NC5CC5)nc4ccc32)cc1` [SCH79797], in the assay with mouse DRG neurons (1 μM), the “rheobase response to trypsin (PAR1 antagonist)” value is reported as “did not affect” and the “rheobase, antagonist alone” value is recorded as “no effect”. Moreover, the “thrombin-induced immediate decrease in rheobase” value with mouse DRG neurons (thrombin 50 nM, 20 min, antagonist 1 μM, 10 min preincubation) is recorded as “prevented”.

Regarding thrombin, the rheobase after protease entry in the assay on mouse DRG neurons (trypsin 50 nM 10 min, NE 390 nM 30 min, CS 500 nM 60 min, thrombin 50 nM 20 min, washed) is “immediate decrease in rheobase”.
